The subject of assay [1] is neuraminidase. As to conditions: 100 µg/mL; Mean ± SD (n not given); fluorogenic substrate, 37 °C, 30 min; ex 322 nm, em 450 nm; compound in DMSO. On the procedure: 4.8. Neuraminidase Inhibitory Assay
The neuraminidase inhibitory activity was evaluated using a Neuraminidase In-hibitor Screening Kit (Beyotime Institute of Biotechnology, Shanghai, China). Assays were carried out in 96-well plates. For each well, 70 μL of neuraminidase assay buffer, 10 μL of neuraminidase solution, and 10 μL of test compound (dissolved in DMSO; final con-centration 100 μg/mL) were gently mixed. The reaction was initiated by adding 10 μL of the fluorogenic substrate to each well, and the plate was incubated at 37 °C for 30 min. Fluorescence was measured on an EnSpire microplate reader with excitation at 322 nm and emission at 450 nm. The fluorescence intensity of neuraminidase was measured at several concentrations to generate a standard curve relating fluorescence signal to enzyme concentration. The fluorescence corresponding to the highest neuraminidase concentration was set as 0% inhibition. Each sample well initially contained neuraminidase at this concentration, and the residual neuraminidase concentration after the reaction was determined from the measured fluorescence using the standard-curve equation. The inhibition percentages were then calculated.

For assay [2], the system named is two human carcinoma cell lines. The settings on record: ref [7], cited from earlier work. The source says:
Cyclic tetrapeptides are a class of natural products with significant potential in drug discovery, characterized by their unique structural features and diverse biological activities. Their cyclic structure confers stability and contributes to their potency, while their low molecular weight and favorable lipophilicity enhance drug-like properties. […] The presence of hydr ...

As usually defined, the IC50 is the point on the concentration scale where inhibition reaches its midpoint.

Like-named read-outs stand apart in the source and are kept apart here.

As to `CC12NC(=O)C(C[C@]13C(=O)Nc1ccccc13)n1c2nc2ccccc2c1=O` (stereo partly drawn) [Compound 8, alantrypinone], the “Inhibition Rate (neuraminidase inhibitory activity)” value (“Inhibition Rate” for short) in assay [1] is 43.85 ± 1.41%.
For `O=C1N[C@@]2(CO)c3nc4ccccc4c(=O)n3[C@@H]1C[C@@]21C(=O)Nc2ccccc21` [Compound 9, serantrypinone], in assay [1], the “Inhibition Rate” value worked out at 51.67 ± 0.42%.
On the same count and under the same terms, the figure for `CC(C)/C=C1\NC(=O)[C@H](CCC(N)=O)n2c1nc1ccccc1c2=O` [Compound 10, aurantiomide C] is 67.54 ± 0.87%.
Regarding Asperterrestide A, the half-maximal inhibitory concentration (IC50) was 6.2 µM in assay [2] (first of two human carcinoma cell lines, read-out: IC50 against human carcinoma cell line (first of two, unnamed)) and 6.4 µM in assay [2] (second of two human carcinoma cell lines, read-out: IC50 against human carcinoma cell line (second of two, unnamed)).
For Penicopeptide B [Compound 1], the “Inhibition Rate” value in assay [1] worked out at 52.90 ± 0.37%.
Penicopeptide C [Compound 2]: in assay [1], the “Inhibition Rate” value turned out to be 43.16 ± 1.23%.
On to Penicopeptide D [Compound 3], for which the “Inhibition Rate” value in assay [1] was 58.67 ± 3.51%.
Penicopeptide E [Compound 4]: the “Inhibition Rate” value in assay [1] came to 74.01 ± 1.32%.
Same read-out and setting: the figure for Penicopeptide F [Compound 5] is 85.40 ± 0.85%.
In the case of Penicopeptide G [Compound 6], the “Inhibition Rate” value in assay [1] was found to be 63.65 ± 0.67%.
Same read-out and setting: to Penicopeptide H [Compound 7] belongs 57.78 ± 0.44%.

The record behind these values is paper PMC12565300, “Novel Cyclic Tetrapeptides as Neuraminidase Inhibitors from a Sponge-Associated Penicillium sp. SCSIO41035” (Marine Drugs, 2025).
